We go through 14 compounds from patent publication US20130109682A1, “CYCLIC ETHER COMPOUNDS USEFUL AS KINASE INHIBITORS” (NOVARTIS AG, priority 2010, published 2013).

By IC50 is commonly meant the concentration at which inhibition is half-maximal.

Assay type in all cases: biochemical
One assay deals with PIM1 (Homo sapiens, UniProt P11309). Put plainly: KinaseGlo Pim1 ATP depletion assay. On the procedure:
KinaseGlo Pim1 ATP Depletion Assay
The activity of PIM1 is measured using a luciferase-luciferin based ATP detection reagent to quantify ATP depletion resulting from kinase-catalyzed phosphoryl transfer to a peptide substrate. Compounds to be tested are dissolved in 100% DMSO and directly distributed into white 384-well plates at 0.5 μA per well. To start the reaction, 10 μA of 5 nM Pim1 kinase and 80 μM BAD peptide (RSRHSSYPAGT-OH) in assay buffer (50 mM HEPES pH 7.5, 5 mM MgCl2, 1 mM DTT, 0.05% BSA) is added into each well. After 15 minutes, 10 μl of 40 μM ATP in assay buffer is added. Final assay concentrations are 2.5 nM PIM1, 20 μM ATP, 40 μM BAD peptide and 2.5% DMSO. The reaction is performed until approximately 50% of the ATP is depleted, then stopped with the addition of 20 μA KinaseGlo Plus (Promega Corporation) solution. The stopped reaction is incubated for 10 minutes and the remaining ATP detected via luminescence on the Victor2 (Perkin Elmer). […] IC50, the half maximal inhibitory concentration, represents the concentration of a test compound that is required for 50% inhibition of its target in vitro.

The target in another assay is PIM2 (Homo sapiens, UniProt Q9P1W9). Put plainly: KinaseGlo Pim2 ATP depletion assay. On the procedure: KinaseGlo Pim2 ATP Depletion Assay
The activity of PIM2 is measured using a luciferase-luciferin based ATP detection reagent to quantify ATP depletion resulting from kinase-catalyzed phosphoryl transfer to a peptide substrate. Compounds to be tested are dissolved in 100% DMSO and directly distributed into white 384-well plates at 0.5 piper well. To start the reaction, 10 μl of 10 nM Pim2 kinase and 20 μM BAD peptide (RSRHSSYPAGT-OH) in assay buffer (50 mM HEPES pH 7.5, 5 mM MgCl2, 1 mM DTT, 0.05% BSA) is added into each well. After 15 minutes, 10 μl of 8 μM ATP in assay buffer is added. Final assay concentrations are 5 nM PIM2, 4 μM ATP, 10 μM BAD peptide and 2.5% DMSO. The reaction is performed until approximately 50% of the ATP is depleted, then stopped with the addition of 20 μl KinaseGlo Plus (Promega Corporation) solution. The stopped reaction is incubated for 10 minutes and the remaining ATP detected via luminescence on the Victor2 (Perkin Elmer).

The next assay addresses PIM3 (Homo sapiens, UniProt Q86V86). Nature of the assay: KinaseGlo Pim3 ATP depletion assay. On the procedure: KinaseGlo Pim3 ATP Depletion Assay
The activity of PIM3 is measured using a luciferase-luciferin based ATP detection reagent to quantify ATP depletion resulting from kinase-catalyzed phosphoryl transfer to a peptide substrate. Compounds to be tested are dissolved in 100% DMSO and directly distributed into white 384-well plates at 0.5 μl per well. To start the reaction, 10 μl of 10 nM Pim3 kinase and 200 μM BAD peptide (RSRHSSYPAGT-OH) in assay buffer (50 mM HEPES pH 7.5, 5 mM MgCl2, 1 mM DTT, 0.05% BSA) is added into each well. After 15 minutes, 10 μl of 80 μM ATP in assay buffer is added. Final assay concentrations are 5 nM […], 40 μM ATP, 100 μM BAD peptide and 2.5% DMSO. The reaction is performed until approximately 50% of the ATP is depleted, then stopped by the addition of 20 μl KinaseGlo Plus (Promega Corporation) solution. The stopped reaction is incubated for 10 minutes and the remaining ATP detected via luminescence on the Victor2 (Perkin Elmer).
(Kinase-Glo measures the ATP left after a reaction by luminescence.)

Another assay deals with GSK3β (Homo sapiens, UniProt P49841). Put plainly: GSK3β ATP depletion assay. To be noted: read-out: GSK3b IC50. The procedure:
GSK3β ATP Depletion Assay
The activity of GSK3β is measured using a luciferase-luciferin based ATP detection reagent to quantify ATP depletion resulting from kinase-catalyzed phosphoryl transfer to a peptide substrate. Compounds to be tested are dissolved in 100% DMSO and directly distributed into white 384-well plates at 0.5 μl per well. To start the reaction, 10 μl of 10 nM GSK3B kinase and 20 μM biotinylated CREB peptide ([…](pS)YR-NH2) in assay buffer (50 mM TRIS pH 7.5, 15 mM MgCl2, 1 mM DTT, 0.1% BSA) is added into each well. After 15 minutes, 10 μl of 2 μM ATP in assay buffer is added. Final assay concentrations are 5 nM GSK3B, […], 10 μM b-CREB peptide and 2.5% DMSO. The reaction is performed until approximately 50% of the ATP is depleted, then stopped with the addition of 20 μl KinaseGlo (Promega Corporation) solution. The stopped reaction is incubated for 10 minutes and the remaining ATP is detected via luminescence on the Victor2 (Perkin Elmer).

Some results are limits rather than exact numbers.

Sequence of PIM1 (P11309 whole entry): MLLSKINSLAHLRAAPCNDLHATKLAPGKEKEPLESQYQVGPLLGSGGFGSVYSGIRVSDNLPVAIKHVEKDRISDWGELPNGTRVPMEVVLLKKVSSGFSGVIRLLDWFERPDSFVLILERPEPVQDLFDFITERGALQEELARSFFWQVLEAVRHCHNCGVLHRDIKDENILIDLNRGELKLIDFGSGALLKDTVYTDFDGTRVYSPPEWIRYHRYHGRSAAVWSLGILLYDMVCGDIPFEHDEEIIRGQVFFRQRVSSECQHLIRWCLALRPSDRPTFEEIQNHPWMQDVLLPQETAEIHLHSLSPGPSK
Sequence of GSK3β (P49841 whole entry, species assumed): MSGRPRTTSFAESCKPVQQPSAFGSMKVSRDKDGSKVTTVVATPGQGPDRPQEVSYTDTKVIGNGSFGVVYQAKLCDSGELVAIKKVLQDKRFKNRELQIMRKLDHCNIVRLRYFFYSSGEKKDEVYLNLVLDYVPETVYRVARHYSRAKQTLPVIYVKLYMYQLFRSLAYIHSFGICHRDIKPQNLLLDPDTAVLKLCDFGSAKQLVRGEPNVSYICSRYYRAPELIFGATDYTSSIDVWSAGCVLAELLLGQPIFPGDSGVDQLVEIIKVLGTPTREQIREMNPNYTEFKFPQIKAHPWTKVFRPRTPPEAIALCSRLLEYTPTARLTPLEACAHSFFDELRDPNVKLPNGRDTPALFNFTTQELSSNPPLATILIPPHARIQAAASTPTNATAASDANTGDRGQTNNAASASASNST
Sequence of PIM2 (Q9P1W9 whole entry): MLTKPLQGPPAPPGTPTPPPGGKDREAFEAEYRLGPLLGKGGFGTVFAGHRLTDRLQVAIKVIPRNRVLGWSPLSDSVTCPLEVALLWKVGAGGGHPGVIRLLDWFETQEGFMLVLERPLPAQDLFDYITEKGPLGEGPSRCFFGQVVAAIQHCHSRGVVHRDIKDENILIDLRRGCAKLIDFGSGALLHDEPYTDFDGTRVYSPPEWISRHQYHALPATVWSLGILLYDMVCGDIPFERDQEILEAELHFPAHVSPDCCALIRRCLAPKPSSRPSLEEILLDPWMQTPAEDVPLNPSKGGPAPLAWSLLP

`O=C(Nc1cnccc1[C@]1(C(F)(F)F)C[C@H](O)CCO1)c1ccc(F)c(-c2c(F)cccc2F)n1` [Example 50, 6-(2,6-difluorophenyl)-5-fluoro-N-(4-((2S,4R)-4-hydroxy-2-(trifluoromethyl)tetrahydro-2H-pyran-2-yl)pyridin-3-yl)picolinamide]: the 50% inhibitory concentration (IC50) was determined as 28 nM on PIM1, 2130 nM against PIM2, 110 nM on PIM3 and 196 nM at GSK3β.

For the compound `O=C(Nc1cnccc1[C@@]1(C(F)(F)F)C[C@@H](O)CCO1)c1ccc(F)c(-c2c(F)cccc2F)n1` [Example 53, 6-(2,6-difluorophenyl)-5-fluoro-N-(4-((2R,4S)-4-hydroxy-2-(trifluoromethyl)tetrahydro-2H-pyran-2-yl)pyridin-3-yl)picolinamide], the IC50 is 78 nM on PIM1, 10300 nM on PIM2, 847 nM at PIM3 and 3120 nM on GSK3β.

Consider `C[C@@H]1O[C@H](c2ccncc2NC(=O)c2ccc(F)c(-c3c(F)cccc3F)n2)C[C@H](O)[C@]1(O)CO` [Example 19, 6-(2,6-difluorophenyl)-N-(4-((2S,4S,5R,6S)-4,5-dihydroxy-5-(hydroxymethyl)-6-methyltetrahydro-2H-pyran-2-yl)pyridin-3-yl)-5-fluoropicolinamide], for which the IC50 against PIM1 stood at 1 nM; against PIM2, 10 nM; on PIM3 it was 4 nM; at GSK3β, 703 nM.

As for `NC(=O)C[C@H]1O[C@@H](c2ccncc2NC(=O)c2ccc(F)c(-c3c(F)cccc3F)n2)C[C@@H](O)[C@@H]1O` [Example 159, N-(4-((2R,4R,5S,6R)-6-(2-amino-2-oxoethyl)-4,5-dihydroxytetrahydro-2H-pyran-2-yl)pyridin-3-yl)-6-(2,6-difluorophenyl)-5-fluoropicolinamide], the results for the IC50 against PIM2 and against PIM3 were 6640 nM and 890 nM, respectively.

Regarding `O=C(Nc1cnccc1[C@]1(C(F)(F)F)C[C@H](O)C=CO1)c1ccc(F)c(-c2c(F)cccc2F)n1` [Example 49, 6-(2,6-difluorophenyl)-5-fluoro-N-(4-((2S,4S)-4-hydroxy-2-(trifluoromethyl)-3,4-dihydro-2H-pyran-2-yl)pyridin-3-yl)picolinamide], the concentration for half-maximal inhibition (IC50) on PIM1 came out at 27 nM; against PIM2, 1420 nM; against PIM3, 73 nM; on GSK3β, 210 nM.

For `N#CC[C@H]1O[C@@H](c2ccncc2NC(=O)c2ccc(C#N)c(-c3c(F)cccc3F)n2)CC[C@@H]1O` [Example 45, 5-cyano-N-(4-((2R,5S,6R)-6-(cyanomethyl)-5-hydroxytetrahydro-2H-pyran-2-yl)pyridin-3-yl)-6-(2,6-difluorophenyl)picolinamide], the IC50 against PIM1 is 68 nM; against PIM2, 1270 nM; against PIM3, 338 nM; at GSK3β, 4310 nM.

On to `N#C[C@H]1OC(c2ccncc2NC(=O)c2ccc(F)c(-c3c(F)cccc3F)n2)=C[C@@H](O)[C@@H]1O` [Example 21, N-(4-((2R,3S,4R)-2-cyano-3,4-dihydroxy-3,4-dihydro-2H-pyran-6-yl)pyridin-3-yl)-6-(2,6-difluorophenyl)-5-fluoropicolinamide], for which the IC50 on PIM1 was determined as 1 nM; against PIM2, 9 nM; against PIM3 it was 3 nM; at GSK3β, 1140 nM.

In the case of `O=C(Nc1cnccc1[C@@]1(C(F)(F)F)C[C@@H](O)C=CO1)c1ccc(F)c(-c2c(F)cccc2F)n1` [Example 48, 6-(2,6-difluorophenyl)-5-fluoro-N-(4-((2R,4R)-4-hydroxy-2-(trifluoromethyl)-3,4-dihydro-2H-pyran-2-yl)pyridin-3-yl)picolinamide], the IC50 at PIM1 stood at 72 nM; against PIM2 it was 19600 nM; at PIM3, 1770 nM; on GSK3β, 3620 nM.

As for `O=C(Nc1cnccc1[C@@H]1C[C@H](O)[C@]2(O)CCCC[C@@H]2O1)c1c[nH]cc(-c2ccccc2)c1=O` [Example 171, N-(4-((2S,4S,4aR,8aS)-4,4a-dihydroxyoctahydro-2H-chromen-2-yl)pyridin-3-yl)-4-oxo-5-phenyl-1,4-dihydropyridine-3-carboxamide], the concentration for half-maximal inhibition (IC50) on PIM1 is 8370 nM; against PIM2, > 25000 nM; at PIM3 it was 10800 nM; at GSK3β, > 25000 nM.

As to `O=C(Nc1cnccc1[C@@]1(C(F)(F)F)CCCCO1)c1ccc(F)c(-c2c(F)cccc2F)n1` [Example 51, (R)-6-(2,6-difluorophenyl)-5-fluoro-N-(4-(2-(trifluoromethyl)tetrahydro-2H-pyran-2-yl)pyridin-3-yl)picolinamide], the IC50 was 54 nM against PIM1, 7360 nM against PIM2, 617 nM on PIM3 and 3720 nM on GSK3β.

Turning to `O=C(Nc1cnccc1[C@H]1C[C@@H](O)[C@H](O)[C@@H](CF)O1)c1ccc(F)c(-c2c(F)cccc2F)n1` [Example 282, 6-(2,6-difluorophenyl)-5-fluoro-N-(4-((2R,4R,5S,6S)-6-(fluoromethyl)-4,5-dihydroxytetrahydro-2H-pyran-2-yl)pyridin-3-yl)picolinamide], the IC50 against PIM1 was found to be 1 nM; against PIM2, 10 nM; against PIM3, 4 nM; on GSK3β it was 187 nM.

On to `C[C@H]1O[C@@H](c2ccncc2NC(=O)c2ccc(F)c(-c3c(F)cccc3F)n2)C[C@@H](O)[C@@]1(O)CO` [Example 20, 6-(2,6-difluorophenyl)-N-(4-((2R,4R,5S,6R)-4,5-dihydroxy-5-(hydroxymethyl)-6-methyltetrahydro-2H-pyran-2-yl)pyridin-3-yl)-5-fluoropicolinamide], for which the IC50 against PIM1 was determined as 8 nM; against PIM2, 103 nM; at PIM3 it was 32 nM; at GSK3β it was 2560 nM.

Take `O=C(Nc1cnccc1[C@]1(C(F)(F)F)CCCCO1)c1ccc(F)c(-c2c(F)cccc2F)n1` [Example 52, (S)-6-(2,6-difluorophenyl)-5-fluoro-N-(4-(2-(trifluoromethyl)tetrahydro-2H-pyran-2-yl)pyridin-3-yl)picolinamide]: the IC50 against PIM1 is 29 nM; against PIM2, 4220 nM; at PIM3, 124 nM; at GSK3β it was 695 nM.

With `Nc1cnc(-c2c(F)cccc2F)nc1C(=O)Nc1cnccc1[C@H]1C[C@@H](O)[C@@]2(O)CCCC[C@H]2O1` [Example 172, 5-amino-2-(2,6-difluorophenyl)-N-(4-((2R,4R,4aS,8aR)-4,4a-dihydroxyoctahydro-2H-chromen-2-yl)pyridin-3-yl)pyrimidine-4-carboxamide], the IC50 against PIM1 turned out to be 2.2 nM; against PIM2, 3.1 nM; against PIM3, 3.1 nM; on GSK3β, 21 nM.
